Results on one molecule are retold here after the NIST ThermoML archive (doi:10.1021/acs.jced.9b00308).

± gives the expanded uncertainty stated by the source.

A short description of data set [1]: Molar enthalpy of transition or fusion. Conditions: Crystal 1; DSC.
For data set [2] the following is noted: Crystal 1; DSC.

Take `O=C1Cc2ccccc2N1` [indolin-2-one]: the “Molar enthalpy of transition or fusion” value in data set [1] was 3.94 ± 0.717 kcal/mol. Also, the Triple point temperature in data set [2] turned out to be 393.93 ± 4.1 K.
